US4567200A, “Esters of mercapto acyl-carnitines and pharmaceutical compositions containing same” (Sigma-Tau Industrie Farmaceutiche Riunite S.p.A., priority 1981, dated 1986)
Structures can show the parent of a compound that is named as a salt.

Legend:
[1] = Mucolytic activity in vitro, thromboelastograph, method of Morandini et al.; details: human sputum
Method: The tests were carried out in vitro by using the method disclosed by Morandini et al. (Lotta contro la tubercolosi 47, n. 4, 1977). A thromboelastograph was used to follow the variations induced by the compounds of general formula (I) and acetylcysteine on the rheological properties of human sputum.

[2] = Acute toxicity in the mouse, Weil method; details: in vivo, ip
Excerpt: The acute toxicity of the compounds of general formula (I) has been studied in the mouse with the Weil method (Weil C.S., Biometr. J. 8, 249, 1952).
The LD50 values of some compounds illustrated in Table I, indicate that the compounds are remarkably well tolerated.
LD50, mg Kg^-1, ep in mice of some mercapto
acyl-carnitine esters of general formula (I).
Weil's method (N = 5, K = 4)

[3] = Expectorant activity (bronchial secretion), method of Perry et al.; format: in vivo, male rabbits; details: rabbits
Method: The tests were carried out on male rabbits, weighing 2-3 Kg, anesthetized with ethyl urethane, by following the method disclosed by Perry et al. (J. Pharm. Exp. Ther. 73, 65, 1941).
Each cannula was connected to a feeding device which delivered a steady flow-rate of pre-heated air (36°-38° C.) at constant humidity (80%). At the lower end of each cannula, a graduated cylinder was fitted, wherein the bronchial secretion was collected. All of the animals breathed spontaneously and consequently they self-regulated the air intake suitable for normal respiration. After an hour following cannula insertion, the animals were administered orally (by stomach tube) the compounds of general formula (I) dissolved in distilled water at the doses indicated in Table IV. Each dose of drug was administered to 5 animals. The control animals (8) were given water only. The amount of secretion was determined after 1, 2 and 4 hours from administration.

[4] = Protection against X-ray exposure, survival of irradiated rats; format: in vivo, Albino Wister rats; details: 20-25 mg Kg^-1 1 hour before irradiation and 10 mg Kg^-1 per day in subsequent 20 days
Method: The effect of the compounds of formula (I) towards the damages provoked by X-ray exposure was studied.
The experiment animals, Albino Wister rats, treated with the compounds under examination (20-25 mg Kg^-1 1 hour before irradiation and 10 mg Kg^-1 per day in the subsequent 20 days) were irradiated and checked over a time period to detect the onset of toxic effects and the time of survival with respect to the control group.
In table II, the percentage of survival at the 10th, 15th and 20th day from irradiation are reported.

[5] = Cutaneous regeneration from burns in rabbits; format: in vivo; details: 25 mg Kg^-1 oral once a day for seven days
Method: The ability of the compounds of formula (I) to speed up the cutaneous regeneration from burns has been tested in rabbits.
A 4 cm^2 cutaneous area of the average-top zone of the test animal back was burned.
The compounds were orally administered in aqueous solution at the dose of 25 mg Kg^-1 once a day for seven days. The area of cutaneous regeneration, i.e., the area of the newly formed tissue was then measured (Table III).

[6] = 1 ml of a 10% solution at dilution 1/30
[7] = 1 ml of a 10% solution at dilution 1/60

| SMILES | Percentage drop ± s.e. of the tracing versus maximum peak (mucolytic activity index) [1, 6] | Percentage drop ± s.e. of the tracing versus maximum peak (mucolytic activity index) [1, 7] | LD50 [2] | Percentage variations of bronchial secretion versus values ([3]; oral 20 mg, 2 hours) | Percentage variations of bronchial secretion versus values ([3]; oral 20 mg, 4 hours) | Percentage of surviving animals ([4]; 10th day from irradiation) | Percentage of surviving animals ([4]; 15th day from irradiation) | Percentage of surviving animals ([4]; 20th day from irradiation) | Percentage of regenerated tissue ([5]; 4th day from treatment) | Percentage of regenerated tissue ([5]; 8th day from treatment) | Percentage variations of bronchial secretion versus values ([3]; oral 15 mg, 2 hours) | Percentage variations of bronchial secretion versus values ([3]; oral 15 mg, 4 hours) | Percentage variations of bronchial secretion versus values ([3]; oral 25 mg, 1 hour) | Percentage variations of bronchial secretion versus values ([3]; oral 25 mg, 2 hours) | Percentage variations of bronchial secretion versus values ([3]; oral 25 mg, 4 hours) | Percentage variations of bronchial secretion versus values ([3]; oral 20 mg, 1 hour) | Percentage variations of bronchial secretion versus values ([3]; oral 15 mg, 1 hour) |
| --- | --- | --- | --- | --- | --- | --- | --- | --- | --- | --- | --- | --- | --- | --- | --- | --- | --- |
| CC(=O)N[C@@H](CS)C(=O)O [Acetylcysteine, acetylcysteine, reference compound] | 75.6 ± 7% | 23.8 ± 5% |  |  |  |  |  |  |  |  |  |  |  |  |  |  |  |
| CCC(S)C(=O)OC(CC(=O)OCC(C)C)C[N+](C)(C)C (stereo not shown) [2-mercapto butyryl carnitine isobutyl ester] | 95.9 ± 5% | 51.2 ± 3% | 236 mg/kg | -0.4% | +0.2% | 95% | 65% | 50% | 35% | 70% |  |  |  |  |  |  |  |
| CC(C)COC(=O)CC(C[N+](C)(C)C)OC(=O)C(C)S (stereo not shown) [2-mercapto propionyl carnitine isobutyl ester] | 80.4 ± 7% | 42.8 ± 4% | 274 mg/kg |  |  | 85% | 70% | 45% | 25% | 65% | -0.1% | +0.5% |  |  |  |  |  |
| CC(C)COC(=O)CC(C[N+](C)(C)C)OC(=O)CCCS (stereo not shown) [4-mercapto butyryl carnitine isobutyl ester] |  |  | 231 mg/kg |  |  | 100% | 75% | 55% | 25% | 75% |  |  | +0.5% | +0.9% | +2.1% |  |  |
| CCOC(=O)CC(C[N+](C)(C)C)OC(=O)CCS (stereo not shown) [3-mercapto propionyl carnitine ethyl ester] | 79.8 ± 4% | 39.5 ± 5% | 228 mg/kg | +0.8% | +1.0% | 90% | 85% | 60% | 40% | 100% |  |  |  |  |  | +0.6% |  |
| CC(C)OC(=O)CC(C[N+](C)(C)C)OC(=O)CS (stereo not shown) [mercapto acetyl carnitine hydrochloride isopropyl-ester] | 82.5 ± 5% | 44.3 ± 3% | 250 mg/kg |  |  | 80% | 55% | 30% | 30% | 70% | +0.7% | +2.1% |  |  |  |  | +0.5% |
| COC(=O)CC(C[N+](C)(C)C)OC(=O)CCCCS (stereo not shown) [5-mercapto valeryl carnitine methyl ester] | 90.2 ± 6% | 48.4 ± 4% | 219 mg/kg | +0.5% | +1.0% | 85% | 60% | 40% | 45% | 100% |  |  |  |  |  | +0.3% |  |
